Measurements taken from US12208088B2 (Genentech, Inc., priority 2018, dated 2025).

Molecular target: HPK1 (Homo sapiens (Human), UniProt Q92918)
Test: HPK1 Lantha binding assay ("Lanth")
Conditions: binding assays; Morrison Ki fit
Outline: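 Ki values are from Morrison-equation fitting of 665/615 nm TR-FRET signals, taking enzyme level, tracer level and tracer Kd into account. The assay mix held HPK1 (2 nM), Eu-anti-GST antibody (2 nM) and Tracer222 (15 nM). Incubations were two 1 h steps at 23 °C, on 5-fold serial compound dilutions.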

Sequence of HPK1 (Q92918 1-346 limits assumed): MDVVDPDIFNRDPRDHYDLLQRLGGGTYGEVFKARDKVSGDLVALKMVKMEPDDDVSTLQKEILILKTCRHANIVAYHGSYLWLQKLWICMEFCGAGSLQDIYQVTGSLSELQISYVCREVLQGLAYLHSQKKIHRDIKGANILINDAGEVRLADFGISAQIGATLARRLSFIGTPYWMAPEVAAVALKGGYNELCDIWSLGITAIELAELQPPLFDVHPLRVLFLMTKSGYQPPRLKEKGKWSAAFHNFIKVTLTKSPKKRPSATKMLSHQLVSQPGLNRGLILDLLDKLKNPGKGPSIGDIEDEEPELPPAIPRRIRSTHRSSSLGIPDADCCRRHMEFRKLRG

**Q.** For `O=C1Nc2ccc(-c3cnc4c(c3)C3(CC3)CN4)cc2C1(O)C1CC1` (stereo not shown) [Compound 23, 3-cyclopropyl-5-(1′,2′-dihydrospiro[cyclopropane-1,3′-pyrrolo[2,3-b]pyridin]-5′-yl)-3-hydroxyindolin-2-one], which Ki is on record?
**A.** 184 nM

**Q.** With `CN(C)C(=O)c1c(N)ccc(-c2cnc3c(c2)C2(CN3)CC2(C)C)c1F` (stereo not shown) [Compound 24, 6-Amino-3-(2,2-dimethyl-1′,2′-dihydrospiro[cyclopropane-1,3′-pyrrolo[2,3-b]pyridin]-5′-yl)-2-fluoro-N,N-dimethylbenzamide] as the compound, how does the Ki read?
**A.** 88.7 nM

**Q.** `CN(C)C(=O)c1c(N)ccc(-c2cnc3c(c2)C2(CN3)C3COCC32)c1F` (stereo not shown) [Compound 26, 6-amino-3-(1′,2′-dihydro-3-oxaspiro[bicyclo[3.1.0]hexane-6,3′-pyrrolo[2,3-b]pyridin]-5′-yl)-2-fluoro-N,N-dimethylbenzamide] was tested. Which Ki did it give?
**A.** 446 nM

**Q.** For `CN(C)C(=O)c1c(N)ccc(-c2cnc3c(c2Cl)C2(CCCC2)CN3)c1F` [Compound 27, 6-Amino-3-(4′-chloro-1′,2′-dihydrospiro[cyclopentane-1,3′-pyrrolo[2,3-b]pyridin]-5′-yl)-2-fluoro-N,N-dimethylbenzamide], which Ki is on record?
**A.** 6.71 nM

**Q.** `CN(C)C(=O)c1c(N)ccc(-c2cnc3c(c2Cl)C2(CC=CC2)CN3)c1F` [Compound 28, 6-Amino-3-(4′-chloro-1′,2′-dihydrospiro[cyclopentane-1,3′-pyrrolo[2,3-b]pyridin]-3-en-5′-yl)-2-fluoro-N,N-dimethylbenzamide] was tested. Which Ki did it give?
**A.** 6.95 nM

**Q.** Which Ki does the source give for `CN(CC(C)(C)O)C(=O)c1c(N)ccc(-c2cnc3c(c2)C2(CC2)CN3)c1F` [Compound 29, 6-amino-3-(1′,2′-dihydrospiro[cyclopropane-1,3′-pyrrolo[2,3-b]pyridin]-5′-yl)-2-fluoro-N-(2-hydroxy-2-methylpropyl)-N-methylbenzamide] here?
**A.** 30 nM

**Q.** Which Ki does the source give for `Cc1c(-c2ccc(N)c(C(=O)N(C)C)c2F)cnc2c1C1(CC1)CN2` [Compound 30, 6-Amino-2-fluoro-N,N-dimethyl-3-(4′-methyl-1′,2′-dihydrospiro[cyclopropane-1,3′-pyrrolo[2,3-b]pyridin]-5′-yl)benzamide] here?
**A.** 53.9 nM

**Q.** With `COc1c(-c2ccc(N)c(C(=O)N(C)C)c2F)cnc2c1C1(CC1)CN2` [Compound 31, 6-Amino-2-fluoro-3-(4′-methoxy-1′,2′-dihydrospiro[cyclopropane-1,3′-pyrrolo[2,3-b]pyridin]-5′-yl)-N,N-dimethylbenzamide] as the compound, how does the Ki read?
**A.** 28.6 nM

**Q.** How did the Ki turn out when `Nc1ccc(-c2cnc3c(c2Cl)C2(CC2)CN3)cc1C(=O)N1C2CCC1CC2` [Compound 32, (2-Amino-5-(4′-chloro-1′,2′-dihydrospiro[cyclopropane-1,3′-pyrrolo[2,3-b]pyridin]-5′-yl)phenyl)(7-azabicyclo[2.2.1]heptan-7-yl)methanone] was run?
**A.** 12.8 nM

**Q.** Which Ki does the source give for `Nc1cc(-c2cnc3c(c2Cl)C2(CC2)CN3)cc(-c2ncccc2CO)c1` [Compound 34, (2-(3-Amino-5-(4′-chloro-1′,2′-dihydrospiro[cyclopropane-1,3′-pyrrolo[2,3-b]pyridin]-5′-yl)phenyl)pyridin-3-yl)methanol] here?
**A.** 6.15 nM

**Q.** With `CN(CCO)C(=O)c1c(N)ccc(-c2cnc3c(c2Cl)C2(CC2)CN3)c1F` [Compound 36, 6-Amino-3-(4′-chloro-1′,2′-dihydrospiro[cyclopropane-1,3′-pyrrolo[2,3-b]pyridin]-5′-yl)-2-fluoro-N-(2-hydroxyethyl)-N-methylbenzamide] as the compound, how does the Ki read?
**A.** 4.7 nM

**Q.** How did the Ki turn out when `CN(C)C(=O)c1c(N)ccc(-c2cnc3c(c2Cl)C2(CCC2)CN3)c1F` [Compound 37, 6-Amino-3-(4′-chloro-1′,2′-dihydrospiro[cyclobutane-1,3′-pyrrolo[2,3-b]pyridin]-5′-yl)-2-fluoro-N,N-dimethylbenzamide] was run?
**A.** 2.2 nM

**Q.** `CN(C)C(=O)c1c(N)ccc(-c2cnc3c(c2Cl)[C@]2(CC[C@@H](O)C2)CN3)c1F` [Compound 38a] was tested. Which Ki did it give?
**A.** 24.2 nM

**Q.** How did the Ki turn out when `CN(C)C(=O)c1c(N)ccc(-c2cnc3c(c2Cl)[C@]2(CC[C@H](O)C2)CN3)c1F` [Compound 38c, 6-Amino-3-((1R,3S)-4′-chloro-3-hydoxy-1′,2′-dihydrospiro[cyclopentane-1,3′-pyrrolo[2,3-b]pyridin]5′-yl)-2-fluoro-N,N-dimethylbenzamide] was run?
**A.** 8.47 nM

**Q.** With `CN(C)C(=O)c1c(N)ccc(-c2cnc3c(c2Cl)C2(CN3)CC2CO)c1F` (stereo not shown) [Compound 39, 6-Amino-3-(4′-chloro-2-(hydroxymethyl)-1′,2′-dihydrospiro[cyclopropane-1,3′-pyrrolo[2,3-b]pyridin]-5′-yl)-2-fluoro-N,N-dimethylbenzamide] as the compound, how does the Ki read?
**A.** 17.2 nM

**Q.** Which Ki does the source give for `CN(C)C(=O)c1c(N)ccc(-c2cnc3c(c2Cl)[C@@]2(CN3)C[C@H]2CO)c1F` [Compound 39a, 6-Amino-3-((1R,2R)-4′-chloro-2-(hydroxymethyl)-1′,2′-dihydrospiro[cyclopropane-1,3′-pyrrolo[2,3-b]pyridin]-5′-yl)-2-fluoro-N,N-dimethylbenzamide] here?
**A.** 27.7 nM

**Q.** `CN(C)C(=O)c1c(N)ccc(-c2cnc3c(c2Cl)[C@]2(CN3)C[C@@H]2CO)c1F` [Compound 39b, 6-Amino-3-((1S,2S)-4′-chloro-2-(hydroxymethyl)-1′,2′-dihydrospiro[cyclopropane-1,3′-pyrrolo[2,3-b]pyridin]-5′-yl)-2-fluoro-N,N-dimethylbenzamide] was tested. Which Ki did it give?
**A.** 40.5 nM

**Q.** `CN(C)C(=O)c1c(N)ccc(-c2cnc3c(c2Cl)C2(CN3)Cc3ccncc3C2)c1F` (stereo not shown) [Compound 40, 6-Amino-3-(4′-chloro-1′,2′,5,7-tetrahydrospiro[cyclopenta[c]pyridine-6,3′-pyrrolo[2,3-b]pyridin]-5′-yl)-2-fluoro-N,N-dimethylbenzamide] was tested. Which Ki did it give?
**A.** 15.3 nM

**Q.** How did the Ki turn out when `O=C1CNCCN1c1cccc(-c2cnc3c(c2)C2(CC2)CN3)c1` [Compound 42, 1-(3-(1′,2′-Dihydrospiro[cyclopropane-1,3′-pyrrolo[2,3-b]pyridin]-5′-yl)phenyl)piperazin-2-one] was run?
**A.** 100 nM

**Q.** For `OCc1cccnc1-c1cccc(-c2cnc3c(c2)C2(CC2)CN3)c1` [Compound 43, (2-(3-(1′,2′-Dihydrospiro[cyclopropane-1,3′-pyrrolo[2,3-b]pyridin]-5′-yl)phenyl)pyridin-3-yl)methanol], which Ki is on record?
**A.** 81.5 nM

**Q.** `CN(CCO)C(=O)c1c(N)ccc(-c2cnc3c(c2Cl)C2(CCC2)CN3)c1F` [Compound 44, 6-Amino-3-(4′-chloro-1′,2′-dihydrospiro[cyclobutane-1,3′-pyrrolo[2,3-b]pyridin]-5′-yl)-2-fluoro-N-(2-hydroxyethyl)-N-methylbenzamide] was tested. Which Ki did it give?
**A.** 4.4 nM

**Q.** Which Ki does the source give for `CN(CCO)C(=O)c1cccc(-c2cnc3c(c2Cl)C2(CC2)CN3)c1F` [Compound 45, 3-(4′-Chloro-1′,2′-dihydrospiro[cyclopropane-1,3′-pyrrolo[2,3-b]pyridin]-5′-yl)-2-fluoro-N-(2-hydroxyethyl)-N-methylbenzamide] here?
**A.** 43.7 nM

**Q.** Which Ki does the source give for `CCN(CCO)C(=O)c1cccc(-c2cnc3c(c2Cl)C2(CC2)CN3)c1F` [Compound 46, 3-(4′-Chloro-1′,2′-dihydrospiro[cyclopropane-1,3′-pyrrolo[2,3-b]pyridin]-5′-yl)-N-ethyl-2-fluoro-N-(2-hydroxyethyl)benzamide] here?
**A.** 38.6 nM

**Q.** For `O=C(c1cccc(-c2cnc3c(c2Cl)C2(CC2)CN3)c1F)N(CCO)CCO` [Compound 47, 3-(4′-Chloro-1′,2′-dihydrospiro[cyclopropane-1,3′-pyrrolo[2,3-b]pyridin]-5′-yl)-2-fluoro-N,N-bis(2-hydroxyethyl)benzamide], which Ki is on record?
**A.** 88.5 nM

**Q.** `O=C(c1cccc(-c2cnc3c(c2Cl)C2(CC2)CN3)c1F)N1CCNCC1` [Compound 48, (3-(4′-Chloro-1′,2′-dihydrospiro[cyclopropane-1,3′-pyrrolo[2,3-b]pyridin]-5′-yl)-2-fluorophenyl)(piperazin-1-yl)methanone] was tested. Which Ki did it give?
**A.** 151 nM

**Q.** How did the Ki turn out when `O=C(c1cccc(-c2cnc3c(c2Cl)C2(CC2)CN3)c1F)N1CC(O)C1` [Compound 49] was run?
**A.** 55.3 nM

**Q.** With `CC(=O)NC1CN(C(=O)c2cccc(-c3cnc4c(c3Cl)C3(CC3)CN4)c2F)C1` [Compound 50, N-(1-(3-(4′-Chloro-1′,2′-dihydrospiro[cyclopropane-1,3′-pyrrolo[2,3-b]pyridin]-5′-yl)-2-fluorobenzoyl)azetidin-3-yl)acetamide] as the compound, how does the Ki read?
**A.** 139 nM

**Q.** With `NC1CN(C(=O)c2cccc(-c3cnc4c(c3Cl)C3(CC3)CN4)c2F)C1` [Compound 51, (3-Aminoazetidin-1-yl)(3-(4′-chloro-1′,2′-dihydrospiro[cyclopropane-1,3′-pyrrolo[2,3-b]pyridin]-5′-yl)-2-fluorophenyl)methanone] as the compound, how does the Ki read?
**A.** 68.2 nM

**Q.** With `COc1c(-c2ccc(N)c(C(=O)N(C)CCO)c2F)cnc2c1C1(CCC1)CN2` [Compound 52, 6-Amino-2-fluoro-N-(2-hydroxyethyl)-3-(4′-methoxy-1′,2′-dihydrospiro[cyclobutane-1,3′-pyrrolo[2,3-b]pyridin]-5′-yl)-N-methylbenzamide] as the compound, how does the Ki read?
**A.** 19 nM

**Q.** How did the Ki turn out when `Cc1c(-c2ccc(N)c(C(=O)N(C)C)c2F)cnc2c1C1(CCC1)CN2` [Compound 53, 6-Amino-2-fluoro-N,N-dimethyl-3-(4′-methyl-1′,2′-dihydrospiro[cyclobutane-1,3′-pyrrolo[2,3-b]pyridin]-5′-yl)benzamide] was run?
**A.** 28.9 nM

**Q.** With `CC(=O)Nc1cc(C#N)cc2c(-c3cnc4c(c3)C3(CC3)CN4)cn(C)c12` [Compound 54, N-(5-Cyano-3-(1′,2′-dihydrospiro[cyclopropane-1,3′-pyrrolo[2,3-b]pyridin]-5′-yl)-1-methyl-1H-indol-7-yl)acetamide] as the compound, how does the Ki read?
**A.** 64.4 nM

**Q.** For `O=C1NCCN1c1cccc(-c2cnc3c(c2Cl)C2(CC2)CN3)c1` [Compound 55, 1-(3-(4′-Chloro-1′,2′-dihydrospiro[cyclopropane-1,3′-pyrrolo[2,3-b]pyridin]-5′-yl)phenyl)imidazolidin-2-one], which Ki is on record?
**A.** 84.7 nM

**Q.** How did the Ki turn out when `N#Cc1cc2c(-c3cnc4c(c3)C3(CC3)CN4)c[nH]c2cn1` [Compound 56, 3-(1′,2′-Dihydrospiro[cyclopropane-1,3′-pyrrolo[2,3-b]pyridin]-5′-yl)-1H-pyrrolo[2,3-c]pyridine-5-carbonitrile] was run?
**A.** 35.3 nM

**Q.** For `Cn1cccc(-c2cccc(-c3cnc4c(c3Cl)C3(CC3)CN4)c2)c1=O` [Compound 57, 3-(3-(4′-Chloro-1′,2′-dihydrospiro[cyclopropane-1,3′-pyrrolo[2,3-b]pyridin]-5′-yl)phenyl)-1-methylpyridin-2(1H)-one], which Ki is on record?
**A.** 9.06 nM
